Structures are written as SMILES.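 How tested: cells in 96-well plates exposed to compound for 48 hours at five concentrations. Here, GI50 denotes the concentration required for 50% inhibition of growth.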 The source made the active and inactive calls. Rule as the data show it: active = GI50 up to about 1.1 µM and inactive = higher.

Some test systems named below: HCT-15; HCT-116; U-251; IGROV-1; RPMI-8226; HOP-62; 786-0; ACHN; DLD-1; NCI-H522; A498; CAKI-1; CCRF-CEM; SNB-19; LOX IMVI; OVCAR-5.
Experiment in all cases: NCI tumour cell line growth inhibition, 48 h

Take `O=C(O)C1CCc2nnc(-c3ccccc3)n21` (centres undefined): the GI50 was > 100 µM in the experiment on HCT-15; > 100 µM (inactive) in the experiment with HCT-116; > 100 µM (inactive) with U-251; > 100 µM (inactive) in the experiment on IGROV-1; > 100 µM (inactive) in the experiment on RPMI-8226; > 100 µM (inactive) in the experiment on HOP-62. The GI50 in the experiment with 786-0, with ACHN, in the experiment on DLD-1, with NCI-H522, in the experiment with A498 and in the experiment with CAKI-1 was > 100 µM (inactive) in each case. Further, the GI50 with CCRF-CEM and in the experiment with SNB-19 was > 100 µM (inactive) throughout.

On to `O=C1c2ccccc2C(=O)N1CCN(CCN1C(=O)c2ccccc2C1=O)Cc1ccccc1`, for which the GI50 is > 100 µM in the experiment on HCT-15; > 100 µM (inactive) with HCT-116; > 100 µM (inactive) in the experiment with U-251; > 100 µM (inactive) with LOX IMVI; > 100 µM (inactive) with RPMI-8226; > 100 µM (inactive) with HOP-62. Moreover, the GI50 in the experiment on 786-0, in the experiment on ACHN, in the experiment on DLD-1, in the experiment with NCI-H522, in the experiment on A498 and in the experiment on CAKI-1 was > 100 µM (inactive) in each case. Besides, the GI50 in the experiment on CCRF-CEM and in the experiment with SNB-19 was > 100 µM (inactive) each time.

Turning to `Cc1cccc(NC(=O)/C(=N\NC(C)(C)C)C2NC(=S)NC2=O)c1C` (centres undefined), the GI50 in the experiment on HCT-15 was > 100 µM; in the experiment on HCT-116, > 100 µM (inactive); with U-251, > 100 µM (inactive); in the experiment on IGROV-1, > 100 µM (inactive); in the experiment on RPMI-8226 it was > 100 µM (inactive); in the experiment with HOP-62 it was > 100 µM (inactive). Besides, the GI50 was > 100 µM (inactive) with 786-0; > 100 µM (inactive) in the experiment on ACHN; > 100 µM (inactive) with DLD-1; > 100 µM (inactive) in the experiment on A498; 15.4 µM (inactive) in the experiment on CAKI-1; > 100 µM (inactive) in the experiment on OVCAR-5. Moreover, the GI50 with CCRF-CEM and with SNB-19 was > 100 µM (inactive) in each case.

With `C=C(/C=C/C=C(\CO)CCC=C(C)C)[C@H]1CCC2([C@H](CCCO)/C(=C(/C)C=O)CC[C@]2(C)O)[C@H]1O` (some centres undefined), the GI50 with HCT-15 was > 100 µM; with HCT-116, > 100 µM (inactive); in the experiment on U-251, > 100 µM (inactive); in the experiment on LOX IMVI it was 54.2 µM (inactive); in the experiment with IGROV-1, > 100 µM (inactive); in the experiment with RPMI-8226 it was > 100 µM (inactive). For the same molecule, the GI50 with HOP-62 was 75.9 µM (inactive); in the experiment on 786-0 it was > 100 µM (inactive); in the experiment on ACHN, > 100 µM (inactive); in the experiment with DLD-1, > 100 µM (inactive); with A498, > 100 µM (inactive); with CAKI-1, > 100 µM (inactive). Further, the GI50 is > 100 µM (inactive) in the experiment on OVCAR-5, 38.2 µM (inactive) in the experiment on CCRF-CEM and > 100 µM (inactive) in the experiment with SNB-19.

Turning to `COC1OC(CO)C(O)C(OC(C)=O)C1NC(=O)N(CCCl)N=O` (centres undefined), the GI50 in the experiment with HCT-116 is > 100 µM (inactive); in the experiment on LOX IMVI, 55 µM (inactive); in the experiment with IGROV-1 it was > 100 µM (inactive); in the experiment with 786-0 it was 81.7 µM (inactive); in the experiment on ACHN it was > 100 µM (inactive); with DLD-1, > 100 µM (inactive). The GI50 with NCI-H522, in the experiment with A498, with CAKI-1, with OVCAR-5, with CCRF-CEM and in the experiment with SNB-19 was > 100 µM (inactive) each time.

Consider `N#CC1=C(Cl)NC(Cl)=C(C#N)C1c1c(Cl)cccc1Cl`, for which the GI50 in the experiment on HCT-15 is 16.2 µM; in the experiment on HCT-116, 18.7 µM (inactive); in the experiment on U-251 it was 16.3 µM (inactive); in the experiment with LOX IMVI, 17.3 µM (inactive); with IGROV-1, 37.9 µM (inactive); with RPMI-8226, 22.5 µM (inactive). Moreover, the GI50 was 48.2 µM (inactive) in the experiment on HOP-62; 25.1 µM (inactive) in the experiment with 786-0; 39.1 µM (inactive) in the experiment on ACHN; 21.4 µM (inactive) with DLD-1; 17.2 µM (inactive) in the experiment on NCI-H522; 94.6 µM (inactive) in the experiment on A498. Besides, the GI50 in the experiment on CAKI-1 was 55.6 µM (inactive); in the experiment on OVCAR-5, > 100 µM (inactive); with CCRF-CEM, 24.4 µM (inactive); in the experiment with SNB-19, 27.9 µM (inactive).

Take `O=S(=O)(Sc1ccc(Cl)cc1)c1ccc(Cl)cc1`: the GI50 in the experiment with HCT-15 is 17.7 µM; in the experiment with HCT-116 it was 14.9 µM (inactive); with U-251, 10.3 µM (inactive); in the experiment with LOX IMVI it was 11.6 µM (inactive); in the experiment on IGROV-1, 16.8 µM (inactive); in the experiment on RPMI-8226, 22.6 µM (inactive). Further, the GI50 with HOP-62 is 15.3 µM (inactive); with 786-0 it was 16 µM (inactive); in the experiment on ACHN, 16.1 µM (inactive); in the experiment on DLD-1, 16.7 µM (inactive); in the experiment with NCI-H522, 17.1 µM (inactive); with A498, 15.9 µM (inactive). The GI50 in the experiment with CAKI-1 was 19.1 µM (inactive); in the experiment on OVCAR-5, 19.9 µM (inactive); in the experiment with CCRF-CEM, 4.23 µM (inactive); in the experiment on SNB-19, 19.3 µM (inactive).

Consider `COc1ccc2ccccc2c1C1OC(=O)c2ccccc21` (centres undefined), for which the GI50 with HCT-15 is > 100 µM; with U-251, > 100 µM (inactive); in the experiment on LOX IMVI, > 100 µM (inactive); with IGROV-1, > 100 µM (inactive); in the experiment on RPMI-8226 it was > 100 µM (inactive); with HOP-62 it was > 100 µM (inactive). Further, the GI50 is > 100 µM (inactive) with 786-0; > 100 µM (inactive) in the experiment with ACHN; > 100 µM (inactive) in the experiment with DLD-1; 63.5 µM (inactive) in the experiment with NCI-H522; > 100 µM (inactive) with A498; > 100 µM (inactive) in the experiment with CAKI-1. In addition, the GI50 in the experiment with OVCAR-5, in the experiment on CCRF-CEM and in the experiment with SNB-19 was > 100 µM (inactive) in each case.

On to `O=C1Nc2ccc([N+](=O)[O-])cc2/C1=N/Nc1ccc([N+](=O)[O-])cc1`, for which the GI50 with HCT-15 was 21.4 µM; with U-251, 19.8 µM (inactive); in the experiment with LOX IMVI it was 27.5 µM (inactive); in the experiment on IGROV-1, 48.2 µM (inactive); in the experiment with RPMI-8226, 5.09 µM (inactive); with HOP-62 it was 18.3 µM (inactive). In addition, the GI50 was 4.73 µM (inactive) with 786-0; 22.3 µM (inactive) with ACHN; 17.8 µM (inactive) in the experiment with DLD-1; 17.2 µM (inactive) in the experiment with NCI-H522; 59.3 µM (inactive) in the experiment on A498; 20.5 µM (inactive) in the experiment on CAKI-1. The GI50 in the experiment on CCRF-CEM was 72.1 µM (inactive); in the experiment with SNB-19 it was 17.6 µM (inactive).

Regarding `CCc1cccc(CC)c1NC(=O)C1=C(C)NC(C)=C(C(=O)Nc2c(CC)cccc2CC)C1c1ccc([N+](=O)[O-])cc1`, the GI50 is 15.1 µM (inactive) with HCT-116; 40.5 µM (inactive) in the experiment on U-251; 30.9 µM (inactive) in the experiment with LOX IMVI; 14.4 µM (inactive) with IGROV-1; 11.4 µM (inactive) with RPMI-8226; 57.5 µM (inactive) with HOP-62. Besides, the GI50 is 13.9 µM (inactive) in the experiment on 786-0; 27.4 µM (inactive) with ACHN; 21.4 µM (inactive) in the experiment on DLD-1; 13.3 µM (inactive) in the experiment with NCI-H522; 19 µM (inactive) in the experiment with A498; 15.8 µM (inactive) in the experiment on CAKI-1. Besides, the GI50 with OVCAR-5 was 44.7 µM (inactive); in the experiment on CCRF-CEM, 15.5 µM (inactive); in the experiment on SNB-19 it was 54.5 µM (inactive).

In the case of `CC1(C)CC23C(=O)N(c4ccccc4)C(Nc4ccccc4)=NC2=CC(C#N)=C(C#N)C3O1` (centres undefined), the GI50 in the experiment on HCT-15 is 64.9 µM; in the experiment with HCT-116, 89.5 µM (inactive); in the experiment on U-251, > 100 µM (inactive); in the experiment with LOX IMVI, 64.4 µM (inactive); in the experiment on IGROV-1 it was > 100 µM (inactive); with RPMI-8226, 30.4 µM (inactive). Further, the GI50 was 82 µM (inactive) with HOP-62; > 100 µM (inactive) with 786-0; 28.8 µM (inactive) with ACHN; 56.2 µM (inactive) in the experiment with DLD-1; 20.1 µM (inactive) with NCI-H522; 26.4 µM (inactive) in the experiment with A498. The GI50 with CAKI-1 is 23.2 µM (inactive); in the experiment on OVCAR-5, > 100 µM (inactive); with CCRF-CEM, 48.6 µM (inactive); in the experiment with SNB-19 it was 89.9 µM (inactive).

Take `Cc1ccccc1NC(=O)C(=O)CC(=O)c1c(C)[n+]([O-])c2ccccc2[n+]1[O-]`: the GI50 in the experiment on HCT-15 was > 100 µM; with HCT-116, > 100 µM (inactive); in the experiment on U-251, > 100 µM (inactive); in the experiment on IGROV-1, > 100 µM (inactive); in the experiment with RPMI-8226, > 100 µM (inactive); in the experiment on HOP-62, > 100 µM (inactive). The GI50 in the experiment on 786-0, with ACHN, in the experiment with DLD-1, in the experiment on A498, with CAKI-1 and with OVCAR-5 was > 100 µM (inactive) each time. Besides, in the experiment on SNB-19, the GI50 is > 100 µM (inactive).

Regarding `Nc1nc2c(-c3ccc([N+](=O)[O-])cc3)nnn2c2ccccc12`, the GI50 in the experiment with HCT-15 was > 100 µM; with U-251, 17.9 µM (inactive); with LOX IMVI, > 100 µM (inactive); with IGROV-1, > 100 µM (inactive); in the experiment with RPMI-8226, > 100 µM (inactive); in the experiment with HOP-62, 56.5 µM (inactive). The GI50 in the experiment with 786-0 is 84.5 µM (inactive); in the experiment with ACHN, > 100 µM (inactive); in the experiment with DLD-1 it was > 100 µM (inactive); with A498, > 100 µM (inactive); in the experiment on CAKI-1, > 100 µM (inactive); with OVCAR-5 it was > 100 µM (inactive). Further, the GI50 was > 10 µM (inactive) in the experiment on CCRF-CEM and 17.5 µM (inactive) in the experiment with SNB-19.

With `COC(=O)c1[nH]c(=S)[nH]c(=O)c1-c1ccc(Cl)cc1`, the GI50 with HCT-15 was > 50 µM; with HCT-116 it was > 50 µM (inactive); in the experiment with U-251, > 50 µM (inactive); with LOX IMVI, > 50 µM (inactive); in the experiment on IGROV-1 it was > 50 µM (inactive); in the experiment on RPMI-8226, > 50 µM (inactive). Also, the GI50 in the experiment on HOP-62, with 786-0, in the experiment with ACHN, in the experiment with DLD-1, in the experiment on NCI-H522 and in the experiment on A498 was > 50 µM (inactive) each time. Further, the GI50 is > 12.2 µM (inactive) in the experiment on CAKI-1, > 50 µM (inactive) with OVCAR-5, > 50 µM (inactive) with CCRF-CEM and > 50 µM (inactive) in the experiment with SNB-19.

The record behind these values is ChEMBL document CHEMBL1201862, “PubChem BioAssay data set” (2004).
